Measurements published in patent US20220031690A1, “ANTI-NEURODEGENERATIVE DISEASE AGENT” (Hayashibara Co., Ltd., priority 2018, published 2022).

What was measured:
PC12-HS cells [1] = assay: Evaluation method A: neurocyte growth acceleration activity (Alamar blue); format: cell-based, rat; conditions: for Cell proliferation rate (%): negative control = 100%; for Action on PC12-HS growth acceleration (50 ng/ml): 3 days culture, class of cell proliferation rate vs negative control = 100%; for neurocyte growth acceleration activity (in words): 40, 200 and 1,000 nM, comment on Table 2; for cytotoxicity to PC12-HS cells: concentration range tested
Text: As a model of the nerve cell, the NGF (nerve growth factor) highly sensitive strain of PC12 cell derived from the rat adrenal pheochromocytoma (hereinafter referred to as “PC12-HS cell”; JCRB cell bank, National Research and Development Institute of Health and Nutrition), which has been widely used as a suitable model for research on human neurodegenerative disease, was used. As the test compound, […] of trimethine cyanine dye compounds; NK-5 (Chemical formula 2), NK-36 (Chemical formula 3), NK-44 (Chemical formula 5) and dye compounds represented by Chemical formulae 12 to 18, and NK-6 (Chemical formula 7), which is a monomethine cyanine dye, were selected. In addition, two kinds of ethylene cross-linked dyes (Chemical formulae 19 and 20), 15 kinds of monomethine cyanine dyes (Chemical formulae 21 to 35), and seven kinds of trimethine cyanine dyes (Chemical formulae 36 to 42), which were expected to have a good neurocyte growth acceleration activity and/or neurite-outgrowth promoting activity in the screening disclosed in Patent literature 6, were also re-evaluated for comparison. The Chemical formulae 12 to 42 are shown below.
The cyanine dye compounds subjected to the test (purity 97% by mass or more, synthesized by Hayashibara Co., Ltd., Okayama, Japan) were individually dissolved in DMSO (product number “D8418”, commercialized by SIGMA Corporation) at a concentration of 5 mg/ml, and the solutions were then filtered through DMSO-resistant membrane (“Millex-LGS LLG025SS”, commercialized by Millipore Corporation) and stored at 25° C. in a dark condition. At the time of use, they were further diluted with Dulbecco's Medium (hereinafter, abbreviated as “D-MEM medium”, commercialized by Nissui Pharmaceutical Co., Ltd.) supplemented by 10% by volume of fetal bovine serum (FBS), and subjected to the test.
PC12-HS cells were subjected to tests after frozen stock cultured cells were thawed and cultured with a D-MEM medium supplemented with 10% by volume of FBS (Hereinafter, when the term “culture” is simply used, it means that the cells are statically cultured in an incubator controlled at 37° C. under 5% by volume of CO2 conditions). Cells used in the test were collected using 0.25% by weight of trypsin solution, then diluted with a D-MEM medium supplemented with 10% by volume of FBS (hereinafter referred to as “culture medium”), seeded into collagen-coated 96-well plates (commercialized by Falcon, Tokyo, Japan, “Microtest Plate, Cell Culture, Flat Bottom”) to obtain 5×10^3 cells/100 μl/well, and cultured for 24 hours (hereinafter referred to as “pre-culture”). Then, the above test samples were diluted with a culture medium, and 100 μl of diluted solution of the test compounds were added to each well so that the final concentration of the test compounds in the wells became 50 ng/ml, and the cells were cultured for another three days. On day 3, the cultures supernatant was removed from each well, 200 μl of culture medium containing 10% by volume of Alamar blue reagents (commercialized by Trek Diagnostic Systems Inc., Ohio, USA) were added to each well, and the cells were cultured for 6 hours. After culturing for 6 hours, the cells were measured for fluorescent intensity at a wavelength of 544-590 nm by “FlexStation 3”, a product name of a fluorescent plate reader (commercialized by Japan Molecular Devices Corporation, Tokyo, Japan). […] Measurements were performed for each test compound in triplicate, and the mean values were shown.
The method was based on Experiment 1-1, except the concentrations of the test compounds were set to three doses of 40 nM, 200 nM and 1,000 nM for evaluation method A (neurocyte growth accelerating effect), and two doses of 200 nM and 1,000 nM for evaluation method B (neurite outgrowth promoting effect). […]

PC12-HS cells [2] = assay: Intracellular ROS production after hydrogen peroxide stimulation (CM-H2DCFDA); format: cell-based, rat; conditions: for intercellular ROS production (%): 50 μM hydrogen peroxide only = 100%; for inhibitory effect on intercellular ROS production (in words): 125 to 1,000 nM
Text: From the above-mentioned Experiment 1-1 and Experiment 1-2, it was shown that NK-5 (Chemical formula 2), NK-5 analogs (Chemical formula 3 and Chemical formula 5) and NK-6 (Chemical formula 7) have strong neurocyte growth acceleration activity and neurite-outgrowth promoting activity, and therefore, it was verified by the following experiment whether these compounds also act effectively on oxidative damage to neurocyte. That is, PC12-HS cells were oxidatively stimulated with hydrogen peroxide, and the intracellular ROS generated at that time was quantified using a fluorescent reagent, and the inhibitory effect of the dye compounds on intercellular ROS production, when an external oxidative stress was applied, was evaluated.
Similar to Experiment 1-1 and Experiment 1-2, precultured PC12-HS cells were cultured for 24 hours with test compounds diluted in culture medium at final concentrations of 125, 250, 500 and 1000 nM. Thereafter, the culture supernatant was removed, the cells were washed with Hank's buffer (60 μM CaCl2), 400 μM MgSO4, 500 μM MgCl2), and then 100 μl of ROS detection reagent CM-H2DCFDA (commercialized by FUJIFILM Wako Pure Chemical Corporation, Tokyo, Japan) adjusted to 5 μM with the same buffer, was added to each well. The PC12-HS cells were cultured at 37° C. for 30 minutes to allow the cells to take up CM-H2DCFDA, and then, the solution containing CM-H2DCFDA was removed. Then, the cells were washed with Hank's buffer, and then added 50 μM of hydrogen peroxide (commercialized by FUJIFILM Wako Pure Chemical Corporation, Tokyo, Japan) diluted with Hank's buffer in a volume 100 μl/well and stimulated at 37° C. for 2 hours. The solution containing hydrogen peroxide was removed, then an 200 μl of Hank's buffer was added to each well, and the cells were measured for fluorescent intensity at a wavelength of 492-527 nm, which is an index of intracellular ROS production, by a fluorescence microplate reader. In addition, after measuring the fluorescence intensity, the cells were fixed by adding 20 μl of glutaraldehyde to each well, and the amount of methylene blue dye uptake was measured as an absorbance at 650 nm, according to a conventional method, the result was used as an index of the number of living cells. The amount of ROS production per cell was indicated by the value that fluorescence intensity (492-527 nm) was divided by the absorbance at 650 nm in each well. The amount of ROS production per cell calculated from cells to which only hydrogen peroxide was added without containing the test compound as a negative control, was set as 100%, and the relative value when the test compound was added was determined, and is shown in Table 3, as the ROS production rate (%) per cell of each well. Measurements were performed for each concentration of each test compound in triplicate, and the mean values were described.

Row | Structure (SMILES) | Cell proliferation rate (%) (PC12-HS cells [1]; 1.000 nM) | Cell proliferation rate (%) (PC12-HS cells [1]; 40 nM) | Action on PC12-HS growth acceleration (50 ng/ml) (PC12-HS cells [1]) | Cell proliferation rate (%) (PC12-HS cells [1]; 200 nM) | neurocyte growth acceleration activity (in words) (PC12-HS cells [1]) | cytotoxicity to PC12-HS cells (PC12-HS cells [1]) | intercellular ROS production (%) (PC12-HS cells [2]; 125 nM) | intercellular ROS production (%) (PC12-HS cells [2]; 250 nM) | intercellular ROS production (%) (PC12-HS cells [2]; 500 nM) | intercellular ROS production (%) (PC12-HS cells [2]; 1,000 nM) | inhibitory effect on intercellular ROS production (in words) (PC12-HS cells [2]) | cell proliferation relative to the negative control (PC12-HS cells [1]; 40 nM)
1 | CCN1C=CC(=Cc2cc[n+](CC)c3ccccc23)c2ccccc21.[I-] [NK-6] | 141.9% | 105.0% | ◯ (the relative value of 130% to 169% was judged to be equivalent to NK-4 (“circle”)) | 117.0% | slightly weaker than that of NK-4 | do not show cytotoxicity | 108.6% | 81.2% | 69.8% | 66.2% | suppressed the intercellular ROS production induced by hydrogen peroxide stimulation, in a concentration-dependent manner | 
2 | CCCCN1C=CC(=CC=Cc2cc[n+](CCCC)c3ccccc23)c2ccccc21.[I-] [NK-44] | 78.5% | 193.4% | ⊚ (170% or higher was judged to be significantly stronger than NK-4 (“double circle”)) | 154.3% | strongest activity | do not show cytotoxicity | 75.4% | 65.11% | 34.1% | 27.1% | suppressed the intercellular ROS production induced by hydrogen peroxide stimulation, in a concentration-dependent manner | about 1.9 times
3 | CCN1C=CC(=CC=Cc2cc[n+](CC)c3ccccc23)c2ccccc21.[Br-] [NK-36] | 137.2% | 123.0% | ◯ (the relative value of 130% to 169% was judged to be equivalent to NK-4 (“circle”)) | 115.5% | slightly weaker than that of NK-4 | do not show cytotoxicity | 88% | 43.5% | 51% | 8.3% | suppressed the intercellular ROS production induced by hydrogen peroxide stimulation, in a concentration-dependent manner | 
